Assay results taken from US11214594B2, “Antimicrobial peptide having synergistic antibacterial effect with antibiotics on multidrug resistant bacteria, and use thereof” (priority 2016, dated 2022).
Values after ≈ are worked out from the molar mass of the structure shown. Where a SMILES comes first, the peptide text is derived from it.

Legend:
gram-negative bacteria = assay: MIC, summary statements for gram-negative bacteria; assay type: cell-based; details: most of the gram-negative bacteria
Experimental: For the antibacterial activity, a minimal inhibitory concentration (MIC) of a peptide in which fungus bodies were not split in an MH medium with sufficient nutrients was measured.
Specifically, the strains described in the following [Table 2] were purchased and diluted with an MH medium such that the number of bacteria was 2×10^6 colony-forming units (CFUs), 100 μl of each of the diluted strains was aliquoted into a 96-well microtiter plate, and then 100 μl of a peptide solution diluted with the MH medium (solution diluted stepwise at 2: 1) was added to each well.

E. coli [1] = assay: MIC of antibiotic during combined treatment with antimicrobial peptide; assay type: cell-based, Escherichia coli; details: for Synergistic effect of antibacterial activity with existing antibiotics compared with PapMA-1: E. coli and MDREC1229; for Antibiotic MIC, Erythromycin / Antibiotic MIC, Linezolid / Antibiotic MIC, Vancomycin: E. coli
Outline: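 Read-out is the MIC of each combined solution, obtained from MH-medium dilutions of antibiotic added well by well, with a reversed-condition run as well.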

S. typhimurium = assay: microbe, parasite or virus in culture; assay type: cell-based, Salmonella typhimurium
Outline: (§1)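 Broth microdilution in MH medium: strains diluted to 2×10^6 CFU were mixed with equal volumes of twofold serial peptide dilutions in MH medium. MIC was taken as the lowest peptide concentration preventing bacterial growth.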

MDRPA 2002 = assay type: cell-based, Pseudomonas aeruginosa
Outline: as §1

A. baumannii = assay: microbe, parasite or virus in culture; assay type: cell-based, Acinetobacter baumannii
Outline: as §1

MDRAB 12035 = assay: microbe, parasite or virus in culture; assay type: cell-based, Acinetobacter baumannii
Outline: as §1

S. aureus = assay: microbe, parasite or virus in culture; assay type: cell-based, Staphylococcus aureus
Outline: as §1

MDREC 1229 = assay: microbe, parasite or virus in culture; assay type: cell-based, Escherichia coli
Outline: as §1

E. coli [2] = assay: microbe, parasite or virus in culture; assay type: cell-based, Escherichia coli; details: for Minimal inhibitory concentration MIC: 16 h; for Antibacterial activity relative to PapMA-1: E. coli
Outline: as §1

MDRST 8007 = assay: Minimal inhibitory concentration (MIC), single agent; assay type: cell-based, Salmonella typhimurium; details: agent alone
Outline: as §1

B. subtilis = assay: microbe, parasite or virus in culture; assay type: cell-based, Bacillus subtilis
Outline: as §1

MRSA 3114 = assay type: cell-based, Staphylococcus aureus; details: 3114
Outline: as §1

MRSA 3126 = assay type: cell-based, Staphylococcus aureus; details: 3126
Outline: as §1

[3] = erythromycin combined with peptide at 1 μg/ml
[4] = erythromycin combined with peptide at 2 μg/ml
[5] = erythromycin combined with peptide at 4 μg/ml
[6] = erythromycin combined with peptide at 6 μg/ml
[7] = erythromycin combined with peptide at 8 μg/ml
[8] = erythromycin combined with peptide at 16 μg/ml
[9] = erythromycin combined with peptide at 32 μg/ml
[10] = erythromycin combined with peptide at 64 μg/ml
[11] = linezolid combined with peptide at 1 μg/ml
[12] = linezolid combined with peptide at 2 μg/ml
[13] = linezolid combined with peptide at 4 μg/ml
[14] = linezolid combined with peptide at 6 μg/ml
[15] = linezolid combined with peptide at 8 μg/ml
[16] = linezolid combined with peptide at 16 μg/ml
[17] = linezolid combined with peptide at 32 μg/ml
[18] = linezolid combined with peptide at 64 μg/ml
[19] = vancomycin combined with peptide at 1 μg/ml
[20] = vancomycin combined with peptide at 2 μg/ml
[21] = vancomycin combined with peptide at 4 μg/ml
[22] = vancomycin combined with peptide at 6 μg/ml
[23] = vancomycin combined with peptide at 8 μg/ml
[24] = vancomycin combined with peptide at 16 μg/ml
[25] = vancomycin combined with peptide at 32 μg/ml
[26] = vancomycin combined with peptide at 64 μg/ml

**Q.** What does the source list for `CC[C@H](C)[C@H](NC(=O)[C@H](CCCCN)NC(=O)[C@H](Cc1c[nH]c2ccccc12)NC(=O)[C@@H](N)CCCNC(=N)N)C(=O)N[C@@H](Cc1ccccc1)C(=O)N[C@@H](CCCCN)C(=O)N[C@@H](CCCCN)C(=O)N[C@H](C(=O)N1CCC[C@H]1C(=O)N[C@@H](CCCCN)C(=O)N[C@@H](CC(C)C)C(=O)N[C@@H](CC(C)C)C(=O)N[C@@H](Cc1c[nH]cn1)C(=O)N[C@@H](CO)C(=O)N[C@@H](Cc1ccccc1)C(=O)N[C@@H](CCCCN)C(=O)N[C@@H](CCCCN)C(=O)N[C@@H](Cc1ccccc1)C(N)=O)[C@@H](C)CC` [PapMA-7, RWK IFK KIP KLL HSF KKF-NH2] (H-RWKIFKKIPKLLHSFKKF-NH2; N-terminus assumed)?
**A.** Antibacterial activity relative to PapMA-1, PapMA-2, PapMA-3 and PapMA-4 (gram-negative bacteria): same or higher; Synergistic effect of antibacterial activity with existing antibiotics compared with PapMA-1 (E. coli [1]): higher level than the PapMA-1 peptide; Antibiotic MIC, Erythromycin (E. coli [1]; [3]): 64 mg/L; Antibiotic MIC, Erythromycin (E. coli [1]; [4]): 32 mg/L; Antibiotic MIC, Erythromycin (E. coli [1]; [5]): 4 mg/L; Antibiotic MIC, Erythromycin (E. coli [1]; [6]): 2 mg/L; Antibiotic MIC, Erythromycin (E. coli [1]; [7]): 0.25 mg/L; Antibiotic MIC, Erythromycin (E. coli [1]; [8]): 0.125 mg/L; Antibiotic MIC, Erythromycin (E. coli [1]; [9]): 0 mg/L; Antibiotic MIC, Erythromycin (E. coli [1]; [10]): 0 mg/L; Antibiotic MIC, Linezolid (E. coli [1]; [11]): >128 mg/L; Antibiotic MIC, Linezolid (E. coli [1]; [12]): 128 mg/L; Antibiotic MIC, Linezolid (E. coli [1]; [13]): 8 mg/L; Antibiotic MIC, Linezolid (E. coli [1]; [14]): 4 mg/L; Antibiotic MIC, Linezolid (E. coli [1]; [15]): 4 mg/L; Antibiotic MIC, Linezolid (E. coli [1]; [16]): 1 mg/L; Antibiotic MIC, Linezolid (E. coli [1]; [17]): 0 mg/L; Antibiotic MIC, Linezolid (E. coli [1]; [18]): 0 mg/L; Antibiotic MIC, Vancomycin (E. coli [1]; [19]): >128 mg/L; Antibiotic MIC, Vancomycin (E. coli [1]; [20]): 128 mg/L; Antibiotic MIC, Vancomycin (E. coli [1]; [21]): 32 mg/L; Antibiotic MIC, Vancomycin (E. coli [1]; [22]): 8 mg/L; Antibiotic MIC, Vancomycin (E. coli [1]; [23]): 4 mg/L; Antibiotic MIC, Vancomycin (E. coli [1]; [24]): 1 mg/L; Antibiotic MIC, Vancomycin (E. coli [1]; [25]): 0 mg/L; Antibiotic MIC, Vancomycin (E. coli [1]; [26]): 0 mg/L; Minimal inhibitory concentration MIC (S. typhimurium): 16 mg/L (≈ 6.83 µM); Minimal inhibitory concentration MIC (MDRPA 2002): 16 mg/L (≈ 6.83 µM); Minimal inhibitory concentration MIC (A. baumannii): 16 mg/L (≈ 6.83 µM); Peptide MIC, peptide alone (A. baumannii): 16 mg/L; Minimal inhibitory concentration MIC (MDRAB 12035): 32 mg/L (≈ 13.7 µM); Peptide MIC, peptide alone (MDRAB 12035): 32 mg/L; Minimal inhibitory concentration MIC (S. aureus): >128 mg/L; Minimal inhibitory concentration MIC (MDREC 1229): 64 mg/L (≈ 27.3 µM); Minimal inhibitory concentration MIC (E. coli [2]): 32 mg/L (≈ 13.7 µM); Antibacterial activity relative to PapMA-1 (E. coli [2]): at least twice as high; Minimal inhibitory concentration MIC (MDRST 8007): 32 mg/L (≈ 13.7 µM); Minimal inhibitory concentration MIC (B. subtilis): >128 mg/L; Minimal inhibitory concentration MIC (MRSA 3114): >128 mg/L; Minimal inhibitory concentration MIC (MRSA 3126): >128 mg/L

**Q.** For `CC[C@H](C)[C@H](NC(=O)[C@H](CCCCN)NC(=O)[C@H](Cc1c[nH]c2ccccc12)NC(=O)[C@@H](N)CCCNC(=N)N)C(=O)N[C@@H](Cc1ccccc1)C(=O)N[C@@H](CCCCN)C(=O)N[C@@H](CCCCN)C(=O)N[C@H](C(=O)N1CCC[C@H]1C(=O)N[C@@H](CCCCN)C(=O)N[C@@H](CC(C)C)C(=O)N[C@@H](CC(C)C)C(=O)N[C@@H](Cc1c[nH]cn1)C(=O)N[C@@H](CO)C(=O)N[C@@H](CC(C)C)C(=O)N[C@@H](CCCCN)C(=O)N[C@@H](CCCCN)C(=O)N[C@@H](Cc1ccccc1)C(N)=O)[C@@H](C)CC` [PapMA-8, RWK IFK KIP KLL HSL KKF-NH2] (H-RWKIFKKIPKLLHSLKKF-NH2; N-terminus assumed), which “Antibacterial activity relative to PapMA-1, PapMA-2, PapMA-3 and PapMA-4” value (gram-negative bacteria) is on record?
**A.** same or higher

**Q.** And the “Synergistic effect of antibacterial activity with existing antibiotics compared with PapMA-1” value (E. coli [1])?
**A.** higher level than the PapMA-1 peptide

**Q.** And the “Antibiotic MIC, Erythromycin” value (E. coli [1]; [3])?
**A.** 128 mg/L

**Q.** What about the “Antibiotic MIC, Erythromycin” value (E. coli [1]; [4]) of the same compound?
**A.** 64 mg/L

**Q.** What about the “Antibiotic MIC, Erythromycin” value (E. coli [1]; [5]) of the same compound?
**A.** 8 mg/L

**Q.** And the “Antibiotic MIC, Erythromycin” value (E. coli [1]; [6])?
**A.** 4 mg/L

**Q.** And the “Antibiotic MIC, Erythromycin” value (E. coli [1]; [7])?
**A.** 0.5 mg/L

**Q.** What about the “Antibiotic MIC, Erythromycin” value (E. coli [1]; [8]) of the same compound?
**A.** 0.25 mg/L

**Q.** What about the “Antibiotic MIC, Erythromycin” value (E. coli [1]; [9]) of the same compound?
**A.** 0 mg/L

**Q.** What about the “Antibiotic MIC, Erythromycin” value (E. coli [1]; [10]) of the same compound?
**A.** 0 mg/L

**Q.** What about the “Antibiotic MIC, Linezolid” value (E. coli [1]; [11]) of the same compound?
**A.** >128 mg/L

**Q.** What about the “Antibiotic MIC, Linezolid” value (E. coli [1]; [12]) of the same compound?
**A.** >128 mg/L

**Q.** What about the “Antibiotic MIC, Linezolid” value (E. coli [1]; [13]) of the same compound?
**A.** 128 mg/L

**Q.** And the “Antibiotic MIC, Linezolid” value (E. coli [1]; [14])?
**A.** 32 mg/L

**Q.** And the “Antibiotic MIC, Linezolid” value (E. coli [1]; [15])?
**A.** 8 mg/L

**Q.** What about the “Antibiotic MIC, Linezolid” value (E. coli [1]; [16]) of the same compound?
**A.** 2 mg/L

**Q.** What about the “Antibiotic MIC, Linezolid” value (E. coli [1]; [17]) of the same compound?
**A.** 0 mg/L

**Q.** What about the “Antibiotic MIC, Linezolid” value (E. coli [1]; [18]) of the same compound?
**A.** 0 mg/L

**Q.** What about the “Antibiotic MIC, Vancomycin” value (E. coli [1]; [19]) of the same compound?
**A.** >128 mg/L

**Q.** What about the “Antibiotic MIC, Vancomycin” value (E. coli [1]; [20]) of the same compound?
**A.** >128 mg/L

**Q.** And the “Antibiotic MIC, Vancomycin” value (E. coli [1]; [21])?
**A.** 64 mg/L

**Q.** What about the “Antibiotic MIC, Vancomycin” value (E. coli [1]; [22]) of the same compound?
**A.** 32 mg/L

**Q.** And the “Antibiotic MIC, Vancomycin” value (E. coli [1]; [23])?
**A.** 16 mg/L

**Q.** And the “Antibiotic MIC, Vancomycin” value (E. coli [1]; [24])?
**A.** 2 mg/L

**Q.** And the “Antibiotic MIC, Vancomycin” value (E. coli [1]; [25])?
**A.** 0 mg/L

**Q.** What about the “Antibiotic MIC, Vancomycin” value (E. coli [1]; [26]) of the same compound?
**A.** 0 mg/L

**Q.** And the “Minimal inhibitory concentration MIC” value (S. typhimurium)?
**A.** 32 mg/L (≈ 13.9 µM)

**Q.** What about the “Minimal inhibitory concentration MIC” value (MDRPA 2002) of the same compound?
**A.** 16 mg/L (≈ 6.93 µM)

**Q.** And the “Minimal inhibitory concentration MIC” value (A. baumannii)?
**A.** 32 mg/L (≈ 13.9 µM)

**Q.** What about the “Peptide MIC, peptide alone” value (A. baumannii) of the same compound?
**A.** 32 mg/L

**Q.** What about the “Minimal inhibitory concentration MIC” value (MDRAB 12035) of the same compound?
**A.** 64 mg/L (≈ 27.7 µM)

**Q.** What about the “Peptide MIC, peptide alone” value (MDRAB 12035) of the same compound?
**A.** 64 mg/L

**Q.** What about the “Minimal inhibitory concentration MIC” value (S. aureus) of the same compound?
**A.** >128 mg/L

**Q.** And the “Minimal inhibitory concentration MIC” value (MDREC 1229)?
**A.** 64 mg/L (≈ 27.7 µM)

**Q.** And the “Minimal inhibitory concentration MIC” value (E. coli [2])?
**A.** 32 mg/L (≈ 13.9 µM)

**Q.** What about the “Antibacterial activity relative to PapMA-1” value (E. coli [2]) of the same compound?
**A.** at least twice as high

**Q.** What about the “Minimal inhibitory concentration MIC” value (MDRST 8007) of the same compound?
**A.** 64 mg/L (≈ 27.7 µM)

**Q.** What about the “Minimal inhibitory concentration MIC” value (B. subtilis) of the same compound?
**A.** >128 mg/L

**Q.** What about the “Minimal inhibitory concentration MIC” value (MRSA 3114) of the same compound?
**A.** >128 mg/L

**Q.** And the “Minimal inhibitory concentration MIC” value (MRSA 3126)?
**A.** >128 mg/L
